Source: ChEMBL document CHEMBL3991601, “The target landscape of clinical kinase drugs” (Science, 2017)
Active and inactive are the calls of the source. For most assays here, no stated cut-off is given here; in the data, actives have a measured Kd and inactives only a lower limit.

How the values were obtained:
[1] = target: T1, Breakpoint cluster region protein (Homo sapiens, UniProt P11274)
T1 sequence (P11274 whole entry): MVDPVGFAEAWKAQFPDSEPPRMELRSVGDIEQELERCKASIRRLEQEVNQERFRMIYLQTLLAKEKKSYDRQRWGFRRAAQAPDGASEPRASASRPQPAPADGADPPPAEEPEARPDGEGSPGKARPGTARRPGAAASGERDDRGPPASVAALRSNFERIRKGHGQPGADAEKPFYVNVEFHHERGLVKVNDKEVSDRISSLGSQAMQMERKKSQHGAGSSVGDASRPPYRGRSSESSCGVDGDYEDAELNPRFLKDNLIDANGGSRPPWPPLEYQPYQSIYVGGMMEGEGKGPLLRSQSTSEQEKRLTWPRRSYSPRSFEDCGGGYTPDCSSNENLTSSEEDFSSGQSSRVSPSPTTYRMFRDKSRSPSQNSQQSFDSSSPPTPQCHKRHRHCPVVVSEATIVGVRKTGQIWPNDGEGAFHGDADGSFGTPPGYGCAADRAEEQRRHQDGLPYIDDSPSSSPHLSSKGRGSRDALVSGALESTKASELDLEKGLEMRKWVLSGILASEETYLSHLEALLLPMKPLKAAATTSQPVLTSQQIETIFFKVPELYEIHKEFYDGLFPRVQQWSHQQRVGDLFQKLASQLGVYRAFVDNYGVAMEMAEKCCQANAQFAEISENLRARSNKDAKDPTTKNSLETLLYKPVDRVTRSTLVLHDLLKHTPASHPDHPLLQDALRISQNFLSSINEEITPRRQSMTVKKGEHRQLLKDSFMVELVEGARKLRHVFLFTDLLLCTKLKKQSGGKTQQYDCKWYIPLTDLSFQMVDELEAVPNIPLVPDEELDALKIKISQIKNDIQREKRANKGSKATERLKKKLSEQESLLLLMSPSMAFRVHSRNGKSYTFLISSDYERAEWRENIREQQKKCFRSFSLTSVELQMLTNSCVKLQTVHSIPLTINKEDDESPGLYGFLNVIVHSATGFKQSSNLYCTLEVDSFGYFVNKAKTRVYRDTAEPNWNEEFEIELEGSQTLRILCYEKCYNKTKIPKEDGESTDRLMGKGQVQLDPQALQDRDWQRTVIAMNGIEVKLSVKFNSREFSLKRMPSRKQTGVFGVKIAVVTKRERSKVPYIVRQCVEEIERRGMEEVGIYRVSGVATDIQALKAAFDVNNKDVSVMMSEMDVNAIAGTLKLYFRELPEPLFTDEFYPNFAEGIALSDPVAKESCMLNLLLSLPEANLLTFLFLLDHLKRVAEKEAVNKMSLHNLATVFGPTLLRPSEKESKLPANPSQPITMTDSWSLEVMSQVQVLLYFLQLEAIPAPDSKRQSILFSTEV

[2] = target: Cyclin-dependent kinase 6 (Homo sapiens, UniProt Q00534)
Chain of Cyclin-dependent kinase 6 (Q00534 whole entry): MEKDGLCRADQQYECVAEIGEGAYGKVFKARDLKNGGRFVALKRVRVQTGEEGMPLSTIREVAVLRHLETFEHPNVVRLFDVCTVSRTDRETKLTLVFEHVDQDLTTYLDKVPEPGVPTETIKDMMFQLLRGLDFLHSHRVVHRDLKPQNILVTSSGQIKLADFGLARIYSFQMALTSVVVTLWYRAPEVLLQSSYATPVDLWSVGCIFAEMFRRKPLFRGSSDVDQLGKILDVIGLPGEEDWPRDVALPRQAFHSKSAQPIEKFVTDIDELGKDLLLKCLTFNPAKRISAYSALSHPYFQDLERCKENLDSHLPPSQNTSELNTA

[3] = target: Dual specificity protein kinase CLK1 (Homo sapiens, UniProt P49759)
Chain of Dual specificity protein kinase CLK1 (P49759 whole entry): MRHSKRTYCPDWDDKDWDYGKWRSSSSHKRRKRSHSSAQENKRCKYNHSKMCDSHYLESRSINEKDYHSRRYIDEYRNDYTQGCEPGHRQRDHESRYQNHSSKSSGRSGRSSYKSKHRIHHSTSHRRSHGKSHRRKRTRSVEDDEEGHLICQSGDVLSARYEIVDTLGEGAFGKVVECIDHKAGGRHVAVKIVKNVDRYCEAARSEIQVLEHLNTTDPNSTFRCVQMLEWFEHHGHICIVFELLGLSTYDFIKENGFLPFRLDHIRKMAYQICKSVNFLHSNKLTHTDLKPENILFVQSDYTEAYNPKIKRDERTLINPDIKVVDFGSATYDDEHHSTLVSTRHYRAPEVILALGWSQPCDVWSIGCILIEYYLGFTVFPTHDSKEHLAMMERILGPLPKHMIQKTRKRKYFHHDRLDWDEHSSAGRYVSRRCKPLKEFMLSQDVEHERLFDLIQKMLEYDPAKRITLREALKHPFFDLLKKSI

[4] = target: T2, Probable ATP-dependent RNA helicase DDX6 (Homo sapiens, UniProt P26196)
T2 sequence (P26196 whole entry): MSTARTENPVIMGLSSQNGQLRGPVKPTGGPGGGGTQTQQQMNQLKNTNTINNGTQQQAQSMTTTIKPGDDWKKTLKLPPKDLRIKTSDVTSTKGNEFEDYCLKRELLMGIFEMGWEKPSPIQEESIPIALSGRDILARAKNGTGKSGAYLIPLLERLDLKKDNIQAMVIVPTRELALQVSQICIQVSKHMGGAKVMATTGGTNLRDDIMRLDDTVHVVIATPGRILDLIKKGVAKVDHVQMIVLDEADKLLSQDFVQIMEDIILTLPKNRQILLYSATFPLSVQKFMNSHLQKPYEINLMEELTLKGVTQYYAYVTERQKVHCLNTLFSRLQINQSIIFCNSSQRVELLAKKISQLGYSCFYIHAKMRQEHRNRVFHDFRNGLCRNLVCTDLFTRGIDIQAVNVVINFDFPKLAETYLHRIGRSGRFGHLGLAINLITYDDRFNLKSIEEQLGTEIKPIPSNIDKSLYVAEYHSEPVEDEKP

[5] = target: Myosin-14 (Homo sapiens, UniProt Q7Z406)
Chain of Myosin-14 (Q7Z406 whole entry): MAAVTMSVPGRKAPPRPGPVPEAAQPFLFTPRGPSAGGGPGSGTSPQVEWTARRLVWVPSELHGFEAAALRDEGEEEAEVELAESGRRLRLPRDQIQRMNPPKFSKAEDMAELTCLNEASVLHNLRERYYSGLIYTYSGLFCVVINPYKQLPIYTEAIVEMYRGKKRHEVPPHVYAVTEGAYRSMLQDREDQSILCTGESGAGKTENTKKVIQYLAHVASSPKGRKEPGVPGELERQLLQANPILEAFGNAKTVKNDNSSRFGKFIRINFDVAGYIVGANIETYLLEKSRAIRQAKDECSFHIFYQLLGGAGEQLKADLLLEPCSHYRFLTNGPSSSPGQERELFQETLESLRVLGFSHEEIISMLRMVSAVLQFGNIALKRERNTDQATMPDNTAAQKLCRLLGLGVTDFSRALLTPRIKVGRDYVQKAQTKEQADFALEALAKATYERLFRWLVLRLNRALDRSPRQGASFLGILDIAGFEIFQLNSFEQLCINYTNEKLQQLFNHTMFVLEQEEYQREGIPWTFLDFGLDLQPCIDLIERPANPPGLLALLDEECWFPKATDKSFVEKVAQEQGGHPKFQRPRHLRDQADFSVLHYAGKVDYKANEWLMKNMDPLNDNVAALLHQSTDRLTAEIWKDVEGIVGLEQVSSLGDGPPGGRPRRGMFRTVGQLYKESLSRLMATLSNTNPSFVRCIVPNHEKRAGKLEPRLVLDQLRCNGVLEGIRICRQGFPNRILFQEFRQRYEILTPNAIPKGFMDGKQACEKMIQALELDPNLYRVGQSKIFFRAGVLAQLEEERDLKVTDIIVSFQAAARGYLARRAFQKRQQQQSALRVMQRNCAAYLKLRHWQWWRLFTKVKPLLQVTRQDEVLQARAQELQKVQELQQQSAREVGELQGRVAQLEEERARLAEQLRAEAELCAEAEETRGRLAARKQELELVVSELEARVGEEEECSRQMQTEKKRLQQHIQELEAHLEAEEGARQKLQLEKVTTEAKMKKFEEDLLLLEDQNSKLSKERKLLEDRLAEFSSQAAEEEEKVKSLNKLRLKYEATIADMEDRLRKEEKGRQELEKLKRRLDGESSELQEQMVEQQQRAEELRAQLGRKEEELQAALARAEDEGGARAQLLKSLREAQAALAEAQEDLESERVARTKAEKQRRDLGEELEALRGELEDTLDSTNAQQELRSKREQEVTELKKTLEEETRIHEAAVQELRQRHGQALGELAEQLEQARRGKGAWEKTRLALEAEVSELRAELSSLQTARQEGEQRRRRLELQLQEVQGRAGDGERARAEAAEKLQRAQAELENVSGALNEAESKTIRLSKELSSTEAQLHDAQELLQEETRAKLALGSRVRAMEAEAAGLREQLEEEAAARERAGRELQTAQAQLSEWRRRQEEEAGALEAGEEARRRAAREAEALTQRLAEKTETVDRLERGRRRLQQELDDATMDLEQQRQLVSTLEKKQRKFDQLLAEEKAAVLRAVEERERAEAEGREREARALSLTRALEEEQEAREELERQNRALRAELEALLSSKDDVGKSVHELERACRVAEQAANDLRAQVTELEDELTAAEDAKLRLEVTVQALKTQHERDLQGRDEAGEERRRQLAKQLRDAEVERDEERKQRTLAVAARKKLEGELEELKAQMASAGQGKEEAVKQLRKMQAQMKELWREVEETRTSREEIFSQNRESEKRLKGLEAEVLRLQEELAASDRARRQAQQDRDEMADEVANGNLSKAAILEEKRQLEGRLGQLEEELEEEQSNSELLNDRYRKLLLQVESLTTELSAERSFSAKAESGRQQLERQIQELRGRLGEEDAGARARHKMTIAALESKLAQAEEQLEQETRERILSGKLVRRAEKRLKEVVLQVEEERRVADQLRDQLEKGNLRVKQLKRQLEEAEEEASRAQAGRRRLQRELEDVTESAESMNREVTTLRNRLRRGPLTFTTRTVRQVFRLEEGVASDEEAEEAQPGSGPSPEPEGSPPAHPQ

[6] = target: Serine/threonine-protein kinase SIK2 (Homo sapiens, UniProt Q9H0K1)
Chain of Serine/threonine-protein kinase SIK2 (Q9H0K1 whole entry): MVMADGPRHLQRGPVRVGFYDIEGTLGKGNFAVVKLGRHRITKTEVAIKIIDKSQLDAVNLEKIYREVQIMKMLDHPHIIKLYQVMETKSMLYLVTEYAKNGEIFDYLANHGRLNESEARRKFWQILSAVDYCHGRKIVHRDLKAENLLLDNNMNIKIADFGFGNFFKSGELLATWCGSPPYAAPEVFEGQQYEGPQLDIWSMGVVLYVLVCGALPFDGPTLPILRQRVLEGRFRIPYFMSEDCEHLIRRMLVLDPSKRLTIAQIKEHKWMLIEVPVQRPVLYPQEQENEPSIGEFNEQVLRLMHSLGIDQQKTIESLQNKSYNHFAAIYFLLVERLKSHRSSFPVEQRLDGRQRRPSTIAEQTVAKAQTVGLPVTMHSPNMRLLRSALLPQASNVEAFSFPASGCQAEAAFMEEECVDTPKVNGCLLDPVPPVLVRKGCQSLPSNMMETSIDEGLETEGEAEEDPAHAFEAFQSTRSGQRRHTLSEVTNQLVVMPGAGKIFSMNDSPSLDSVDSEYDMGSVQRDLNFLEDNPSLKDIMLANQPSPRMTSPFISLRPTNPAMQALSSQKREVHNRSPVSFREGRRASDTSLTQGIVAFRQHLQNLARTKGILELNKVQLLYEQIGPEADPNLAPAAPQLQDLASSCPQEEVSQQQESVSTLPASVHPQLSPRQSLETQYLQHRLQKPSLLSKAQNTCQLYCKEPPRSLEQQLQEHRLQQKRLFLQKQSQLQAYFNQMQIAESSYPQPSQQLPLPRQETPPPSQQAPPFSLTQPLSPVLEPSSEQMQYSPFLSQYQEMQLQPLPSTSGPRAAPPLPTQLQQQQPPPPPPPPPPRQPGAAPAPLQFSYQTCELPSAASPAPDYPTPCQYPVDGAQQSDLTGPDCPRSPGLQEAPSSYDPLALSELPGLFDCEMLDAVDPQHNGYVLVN

[7] = target: Serine/threonine-protein kinase 26 (Homo sapiens, UniProt Q9P289)
Chain of Serine/threonine-protein kinase 26 (Q9P289 whole entry): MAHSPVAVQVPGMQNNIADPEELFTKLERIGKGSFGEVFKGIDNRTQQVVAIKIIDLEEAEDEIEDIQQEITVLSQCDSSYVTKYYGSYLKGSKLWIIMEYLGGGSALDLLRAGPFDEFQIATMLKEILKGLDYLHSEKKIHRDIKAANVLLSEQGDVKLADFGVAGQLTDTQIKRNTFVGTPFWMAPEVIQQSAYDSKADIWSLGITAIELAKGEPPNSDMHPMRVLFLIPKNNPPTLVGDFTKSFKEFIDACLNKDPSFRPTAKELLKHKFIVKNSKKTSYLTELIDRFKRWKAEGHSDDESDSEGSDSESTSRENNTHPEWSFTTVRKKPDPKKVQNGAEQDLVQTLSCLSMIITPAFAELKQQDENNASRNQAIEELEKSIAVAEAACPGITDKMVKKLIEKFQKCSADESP

[8] = target: T3, Non-receptor tyrosine-protein kinase TNK1 (Homo sapiens, UniProt Q13470)
T3 sequence (Q13470 whole entry): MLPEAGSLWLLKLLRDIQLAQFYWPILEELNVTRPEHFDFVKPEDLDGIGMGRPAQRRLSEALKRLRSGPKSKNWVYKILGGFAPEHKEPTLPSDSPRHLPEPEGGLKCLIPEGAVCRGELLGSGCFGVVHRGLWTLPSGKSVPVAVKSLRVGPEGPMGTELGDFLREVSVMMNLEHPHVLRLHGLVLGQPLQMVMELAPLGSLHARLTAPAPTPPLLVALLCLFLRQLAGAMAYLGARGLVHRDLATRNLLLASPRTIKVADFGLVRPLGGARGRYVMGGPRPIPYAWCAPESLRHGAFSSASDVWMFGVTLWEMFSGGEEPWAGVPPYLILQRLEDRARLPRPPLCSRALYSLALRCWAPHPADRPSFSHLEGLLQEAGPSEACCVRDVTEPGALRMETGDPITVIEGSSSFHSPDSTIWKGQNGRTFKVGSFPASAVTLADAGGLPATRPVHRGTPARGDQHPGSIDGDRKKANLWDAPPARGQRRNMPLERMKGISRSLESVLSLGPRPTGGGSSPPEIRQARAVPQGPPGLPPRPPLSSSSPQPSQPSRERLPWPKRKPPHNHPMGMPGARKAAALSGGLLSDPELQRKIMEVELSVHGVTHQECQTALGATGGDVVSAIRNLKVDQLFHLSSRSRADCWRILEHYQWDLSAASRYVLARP

SMILES | Kd [1] | Kd [2] | Kd [3] | Kd [4] | Kd [5] | Kd [6] | Kd [7] | Kd [8]
Cc1cc(-c2cc(OC(=O)c3ccccc3)ccc2Cl)cc2nnc(Nc3ccc(OCCN4CCCC4)cc3)nc12 [TG100-801] | 0.065 µM (active) | > 30 µM (inactive) | > 30 µM (inactive) | > 30 µM (inactive) | > 30 µM (inactive) | > 30 µM (inactive) | > 30 µM (inactive) | > 30 µM (inactive)
N#CCNC(=O)c1ccc(-c2ccnc(Nc3ccc(N4CCOCC4)cc3)n2)cc1 [MOMELOTINIB] | > 30 µM (inactive) | 3.36 µM | 0.918 µM | > 30 µM (inactive) | > 30 µM (inactive) | 0.79 µM (active) | > 30 µM (inactive) | > 30 µM (inactive)
C=CC(=O)Nc1cccc(Nc2nc(Nc3ccc(N4CCN(C(C)=O)CC4)cc3OC)ncc2C(F)(F)F)c1 [ROCILETINIB] | > 30 µM (inactive) | > 30 µM (inactive) | 0.651 µM (active) | > 30 µM (inactive) | > 30 µM (inactive) | > 30 µM (inactive) | > 30 µM (inactive) | 0.289 µM (active)
O=S(=O)(c1cccc2c(O)nccc12)N1CCCNCC1 [HYDROXYFASUDIL] | > 30 µM (inactive) | > 30 µM (inactive) | 24.1 µM (active) | > 30 µM (inactive) | > 30 µM (inactive) | > 30 µM (inactive) | > 30 µM (inactive) | > 30 µM (inactive)
CC[C@@](C)(Nc1ccnc(-c2c[nH]c3ncccc23)n1)C(=O)NCC(F)(F)F [DECERNOTINIB] | > 30 µM (inactive) | > 30 µM (inactive) | > 30 µM (inactive) | > 30 µM (inactive) | > 30 µM (inactive) | > 30 µM (inactive) | 1.14 µM (active) | 0.046 µM
CCc1cc2c(cc1N1CCC(N3CCOCC3)CC1)C(C)(C)c1[nH]c3cc(C#N)ccc3c1C2=O [ALECTINIB] | > 30 µM (inactive) | > 30 µM (inactive) | 29.9 µM (active) | > 30 µM (inactive) | > 30 µM (inactive) | > 30 µM (inactive) | > 30 µM (inactive) | > 30 µM (inactive)
COc1cc(Nc2ncc(F)c(Nc3ccc4c(n3)N(COP(=O)(O)O)C(=O)C(C)(C)O4)n2)cc(OC)c1OC [FOSTAMATINIB] | > 30 µM (inactive) | > 30 µM (inactive) | > 30 µM (inactive) | > 30 µM (inactive) | > 30 µM (inactive) | > 30 µM (inactive) | > 30 µM (inactive) | 0.16 µM (active)
Cc1ccc(C(=O)Nc2ccc(Oc3cc4cnn(C)c4cc3-c3cn[nH]c3)c(F)c2)c(=O)n1-c1ccc(F)cc1 [MERESTINIB] | > 30 µM (inactive) | > 30 µM (inactive) | > 30 µM (inactive) | > 30 µM (inactive) | > 30 µM (inactive) | > 30 µM (inactive) | > 30 µM (inactive) | > 30 µM (inactive)

Results, then the compound that gave them:

Kd [1] | Kd [2] | Kd [3] | Kd [4] | Kd [5] | Kd [6] | Kd [7] | Kd [8] | SMILES
0.035 µM (active) | > 30 µM (inactive) | > 30 µM (inactive) | > 30 µM (inactive) | > 30 µM (inactive) | > 30 µM (inactive) | > 30 µM (inactive) | > 30 µM (inactive) | Cc1cc(C(=O)Nc2cc(Oc3ccc4nc(NC(=O)C5CC5)cn4n3)ccc2C)n(C)n1 [TAK-593]
> 30 µM (inactive) | > 30 µM (inactive) | > 30 µM (inactive) | > 30 µM (inactive) | > 30 µM (inactive) | > 30 µM (inactive) | > 30 µM (inactive) | > 30 µM (inactive) | Cn1c(=O)c(F)c(Nc2ccc(I)cc2F)c2c(=O)n(C[C@@H](O)CO)cnc21 [TAK-733]
> 30 µM (inactive) | > 30 µM (inactive) | > 30 µM (inactive) | > 30 µM (inactive) | > 30 µM (inactive) | > 30 µM (inactive) | > 30 µM (inactive) | > 30 µM (inactive) | COc1cccc2cc(-c3nc([C@H]4CC[C@H](C(=O)O)CC4)n4ncnc(N)c34)[nH]c12 [OSI-027]
